#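 Interpolation was linear, between the two tested concentrations surrounding the appropriate level; five concentrations were tested over 48 hours in 96-well plates. GI50: concentration for 50% inhibition of growth. TGI is the concentration that stops growth completely.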
# Test system: HOP-92 NSCLC
# Assay: inhibition of tumour cell growth, NCI panel, 48 h
SMILES,GI50,TGI
C=CC1(C)CC(=O)C2(O)C(C)(O1)C(OC(C)=O)C(O)C1C(C)(C)CCC(O)C12C (centres undefined),20.3 µM,> 150 µM
Cc1cc(N(C)C)c2ccccc2[n+]1CCCCCCCCCC[n+]1c(C)cc(N(C)C)c2ccccc21,,5.44 µM
CN1Cc2c(nc(-c3ccccc3)c[n+]2[O-])N(C)C1,,> 100 µM
C=C(CN(C)C)C(=O)c1ccc(C(=O)C(=C)CN(C)C)cc1,,> 100 µM
COc1cc(Nc2ccc3c(c2)CCC3)nc(OC)n1,,> 100 µM
N#Cc1sc2c(c1OC(=O)c1ccc(C(F)(F)F)cc1)c(=O)n(-c1ccccc1)c(=S)n2-c1ccccc1,,68.4 µM
Cc1c2c(c(C)n1-c1ccccc1)C(=O)N(CCN1CCN(c3cccc(C(F)(F)F)c3)CC1)C2=O,,> 100 µM
O[C@H]1[C@H](O)[C@@H](O)CN2CC[C@H](O)[C@H]12,,> 100 µM
Clc1sc(Cl)c2c1[C@@H](Cl)C[C@@H]2Br,,> 100 µM
Clc1ccc(C=NC23CC4CC(CC(C4)C2)C3)c(Cl)c1,,> 10 µM
C=C(C)CNCCN,,> 100 µM
Cc1ccnc(NC(=S)Nc2ccc([N+](=O)[O-])cc2)c1,,> 100 µM
O=C(CN1C(=O)CC(c2ccccc2)(c2ccccc2)C1=O)N1CCN(CCO)CC1,,> 100 µM
O=C1c2cccc3cccc(c23)C(=O)N1CCCNCCCCNCCCNCCCN1C(=O)c2cccc3cccc(c23)C1=O,,2.37 µM
C=C(C)[C@H]1C2=CC(C(=O)OC)=C(C[C@H](C(=C)C)[C@@H](O)[C@@H](O)C3=C[C@H]1OC3=O)O2,,> 100 µM
COc1cc(C2c3cc4c(cc3[C@@H](Nc3ccccc3)C3COC(=O)[C@H]23)OCO4)cc(OC)c1O (some centres undefined),,11.7 µM
CSc1nc2c(c(N(C)C)n1)C(O)n1c(nc3ccccc31)S2 (centres undefined),,> 74.5 µM
O=C1NC(O)CCN1C1OC(CO)C(O)C1O (centres undefined),,> 250 µM

SMILES,GI50,TGI
COc1ccc(-c2nc3ccccc3c(=S)n2OC(C)=O)cc1,,> 25 µM
C=C1C(=O)[C@@]23CC[C@@H]4[C@@]5(C)CCC[C@@]4(OC5=O)[C@@]2(C)CC[C@@H]1C3,,57.7 µM
CCCCOCCOC1=C(Cl)C(=O)c2c(O)ccc(O)c2C1=O,,0.657 µM
N#CC(c1ccccc1)N(CCOCCOCCN(C(=O)c1ccccc1)C(C#N)c1ccccc1)C(=O)c1ccccc1 (centres undefined),,> 100 µM
CN1CCN(Cc2cc3c(nn2)-c2ccccc2C3=O)CC1,,> 100 µM
CN(C)Cc1cc(C(=O)/C=C/c2ccc([N+](=O)[O-])cc2)cc(CN(C)C)c1O,,26.2 µM
CC(C(=O)COCc1ccccc1)P1(=O)OC(C)(C)CN1C(C)(C)C (centres undefined),,> 100 µM
O=C(NN1C(=O)CS(=O)(=O)C1c1ccc(C(F)(F)F)cc1)c1ccncc1 (centres undefined),,> 100 µM
Cn1c2ccccc2c2c(=S)c3ccccc3ccc21,,> 100 µM
CC1OC(O[C@H]2C3C=CO[C@@H](OC4OC(CO)C(O)C(O)C4O)C3[C@@]3(COC(=O)/C=C/c4ccccc4)O[C@@H]23)C(O)C(O)C1O (some centres undefined),,> 100 µM
COc1ccc(CC(N)=O)cc1OC,,> 1170 µM
CCOC(=O)CNC(=O)NC12CC3CC(CC(C3)C1)C2,,216 µM
COc1cc2c(cc1OCCCCCN1CCN(c3ncnc4ccccc34)CC1)N=CC1CCCN1C2=O (centres undefined),0.0224 µM,0.069 µM
O=C(NCCCl)O/N=C/c1cccnc1,,> 100 µM
C/C1=C\[C@H](C)C[C@H](C)OC(=O)[C@H](C)NC(=O)[C@@H](Cc2ccc(O)c(Br)c2)N(C)C(=O)[C@H](C)NC(=O)[C@@H](C)C1,,0.177 µM
CC(C)C1=CC23CCC4C(C)(C(=O)O)CCCC4(C)C2CC1C1C(=O)N(CCCCCCN2C(=O)C4C5CC6C7(C)CCCC(C)(C(=O)O)C7CCC6(C=C5C(C)C)C4C2=O)C(=O)C13 (centres undefined),,36.2 µM
COC(=O)c1ccccc1CC1Cc2cccc(C)c2C1=O (centres undefined),,80.6 µM

# Test system: MDA-MB-231 breast
# Assay: inhibition of tumour cell growth, NCI panel, 48 h
SMILES,TGI,GI50
Cc1cc(N(C)C)c2ccccc2[n+]1CCCCCCCCCC[n+]1c(C)cc(N(C)C)c2ccccc21,6.15 µM,
COc1cc(Nc2ccc3c(c2)CCC3)nc(OC)n1,> 100 µM,
CNc1[nH]c(=S)nc2sc3c(c12)CCCC3,> 75 µM,
N#Cc1sc2c(c1OC(=O)c1ccc(C(F)(F)F)cc1)c(=O)n(-c1ccccc1)c(=S)n2-c1ccccc1,> 100 µM,
Cc1c2c(c(C)n1-c1ccccc1)C(=O)N(CCN1CCN(c3cccc(C(F)(F)F)c3)CC1)C2=O,> 100 µM,
COc1cc(O)c2c(=O)c(OC)c(-c3ccc(OC)c(O)c3)oc2c1,> 100 µM,
Clc1sc(Cl)c2c1[C@@H](Cl)C[C@@H]2Br,> 100 µM,
O=C(OCC(Cl)(Cl)Cl)N1CC[C@H](C2CCCCC2)C1,96.2 µM,
Clc1ccc(C=NC23CC4CC(CC(C4)C2)C3)c(Cl)c1,> 10 µM,
c1ccc(C(C(=Nc2ccc(Cc3ccc(N=C(C(c4ccccc4)c4ccccc4)N4CC4)cc3)cc2)N2CC2)c2ccccc2)cc1,29.2 µM,
C=C(C)CNCCN,> 100 µM,
O=C(CN1C(=O)CC(c2ccccc2)(c2ccccc2)C1=O)N1CCN(CCO)CC1,> 100 µM,
COc1ccc2oc(=N)c(C(=O)Nc3ccccc3)cc2c1,> 100 µM,
O=C1c2cccc3cccc(c23)C(=O)N1CCCNCCCCNCCCNCCCN1C(=O)c2cccc3cccc(c23)C1=O,2.36 µM,
C=C(C)[C@H]1C2=CC(C(=O)OC)=C(C[C@H](C(=C)C)[C@@H](O)[C@@H](O)C3=C[C@H]1OC3=O)O2,> 100 µM,
O=c1onc2n1-c1cc(Cl)ccc1C(=S)N1CSCC21 (centres undefined),> 100 µM,

SMILES,TGI,GI50
OC(C#CCN1CCCC1)(c1ccccc1)c1ccccc1Cl (centres undefined),> 100 µM,
CSc1nc2c(c(N(C)C)n1)C(O)n1c(nc3ccccc31)S2 (centres undefined),> 100 µM,
COc1ccc(-c2nc3ccccc3c(=S)n2OC(C)=O)cc1,> 25 µM,
Cn1ncc2c(NCc3ccccc3)ncnc21,> 100 µM,
CCCCOCCOC1=C(Cl)C(=O)c2c(O)ccc(O)c2C1=O,1.07 µM,
N#CC(c1ccccc1)N(CCOCCOCCN(C(=O)c1ccccc1)C(C#N)c1ccccc1)C(=O)c1ccccc1 (centres undefined),> 100 µM,
COc1cccc2c1OC(c1cccc3ccccc13)C([N+](=O)[O-])=C2 (centres undefined),5.01 µM,
CN(C)Cc1cc(C(=O)/C=C/c2ccc([N+](=O)[O-])cc2)cc(CN(C)C)c1O,28.5 µM,
Cn1c2ccccc2c2c(=S)c3ccccc3ccc21,> 100 µM,
CCOc1c(OC)cc(-c2nc3n(n2)C(=O)C(CC)S3)cc1OC (centres undefined),> 10 µM,
CC1OC(O[C@H]2C3C=CO[C@@H](OC4OC(CO)C(O)C(O)C4O)C3[C@@]3(COC(=O)/C=C/c4ccccc4)O[C@@H]23)C(O)C(O)C1O (some centres undefined),> 100 µM,
O=C1C(=Nc2ccc(Nc3ccccc3)cc2)Oc2ccccc21,4.51 µM,
COc1cc2c(cc1OCCCCCN1CCN(c3ncnc4ccccc34)CC1)N=CC1CCCN1C2=O (centres undefined),0.0604 µM,0.0193 µM
C/C1=C\[C@H](C)C[C@H](C)OC(=O)[C@H](C)NC(=O)[C@@H](Cc2ccc(O)c(Br)c2)N(C)C(=O)[C@H](C)NC(=O)[C@@H](C)C1,0.518 µM,
CC(C)C1=CC23CCC4C(C)(C(=O)O)CCCC4(C)C2CC1C1C(=O)N(CCCCCCN2C(=O)C4C5CC6C7(C)CCCC(C)(C(=O)O)C7CCC6(C=C5C(C)C)C4C2=O)C(=O)C13 (centres undefined),36.8 µM,
COC(=O)c1ccccc1CC1Cc2cccc(C)c2C1=O (centres undefined),> 100 µM,

# Test system: NCI-H23 lung
# Assay: inhibition of tumour cell growth, NCI panel, 48 h
row,SMILES,TGI
1,C=CC1(C)CC(=O)C2(O)C(C)(O1)C(OC(C)=O)C(O)C1C(C)(C)CCC(O)C12C (centres undefined),> 150 µM
2,Cc1cc(N(C)C)c2ccccc2[n+]1CCCCCCCCCC[n+]1c(C)cc(N(C)C)c2ccccc21,5.32 µM
3,CN1Cc2c(nc(-c3ccccc3)c[n+]2[O-])N(C)C1,> 100 µM
4,C=C(CN(C)C)C(=O)c1ccc(C(=O)C(=C)CN(C)C)cc1,> 100 µM
5,COc1cc(Nc2ccc3c(c2)CCC3)nc(OC)n1,> 100 µM
6,CNc1[nH]c(=S)nc2sc3c(c12)CCCC3,> 75 µM
7,N#Cc1sc2c(c1OC(=O)c1ccc(C(F)(F)F)cc1)c(=O)n(-c1ccccc1)c(=S)n2-c1ccccc1,> 100 µM
8,Cc1c2c(c(C)n1-c1ccccc1)C(=O)N(CCN1CCN(c3cccc(C(F)(F)F)c3)CC1)C2=O,> 100 µM
9,O[C@H]1[C@H](O)[C@@H](O)CN2CC[C@H](O)[C@H]12,> 100 µM
10,COc1cc(O)c2c(=O)c(OC)c(-c3ccc(OC)c(O)c3)oc2c1,> 100 µM
11,Clc1sc(Cl)c2c1[C@@H](Cl)C[C@@H]2Br,> 100 µM
12,O=C(OCC(Cl)(Cl)Cl)N1CC[C@H](C2CCCCC2)C1,33.2 µM
13,Clc1ccc(C=NC23CC4CC(CC(C4)C2)C3)c(Cl)c1,> 10 µM
14,c1ccc(C(C(=Nc2ccc(Cc3ccc(N=C(C(c4ccccc4)c4ccccc4)N4CC4)cc3)cc2)N2CC2)c2ccccc2)cc1,30.8 µM
15,C=C(C)CNCCN,> 100 µM
16,Cc1ccnc(NC(=S)Nc2ccc([N+](=O)[O-])cc2)c1,> 100 µM
17,O=C(CN1C(=O)CC(c2ccccc2)(c2ccccc2)C1=O)N1CCN(CCO)CC1,> 100 µM
18,COc1ccc2oc(=N)c(C(=O)Nc3ccccc3)cc2c1,51.8 µM
19,O=C1c2cccc3cccc(c23)C(=O)N1CCCNCCCCNCCCNCCCN1C(=O)c2cccc3cccc(c23)C1=O,1.72 µM
20,C=C(C)[C@H]1C2=CC(C(=O)OC)=C(C[C@H](C(=C)C)[C@@H](O)[C@@H](O)C3=C[C@H]1OC3=O)O2,> 100 µM
21,COc1cc(C2c3cc4c(cc3[C@@H](Nc3ccccc3)C3COC(=O)[C@H]23)OCO4)cc(OC)c1O (some centres undefined),3.01 µM
22,OC(C#CCN1CCCC1)(c1ccccc1)c1ccccc1Cl (centres undefined),> 100 µM
23,CSc1nc2c(c(N(C)C)n1)C(O)n1c(nc3ccccc31)S2 (centres undefined),> 100 µM
24,O=C1NC(O)CCN1C1OC(CO)C(O)C1O (centres undefined),> 250 µM
25,COc1ccc(-c2nc3ccccc3c(=S)n2OC(C)=O)cc1,> 25 µM
26,C=C1C(=O)[C@@]23CC[C@@H]4[C@@]5(C)CCC[C@@]4(OC5=O)[C@@]2(C)CC[C@@H]1C3,4.49 µM
27,Cn1ncc2c(NCc3ccccc3)ncnc21,> 100 µM
28,CCCCOCCOC1=C(Cl)C(=O)c2c(O)ccc(O)c2C1=O,1.02 µM
29,N#CC(c1ccccc1)N(CCOCCOCCN(C(=O)c1ccccc1)C(C#N)c1ccccc1)C(=O)c1ccccc1 (centres undefined),> 100 µM

# — PubChem BioAssay (NCI)
